Assay results from patent US20160002204A1 (Board of Regents, The University of Texas System, priority 2014, published 2016).

Assays:
[1] = target: T1, GLS1 (purified recombinant human GAC) (Homo sapiens, UniProt O94925); assay: GLS1 enzymatic activity assay (dual-coupled, Amplex UltraRed/resorufin); type: biochemical
T1 sequence (O94925 55-598 isoform O94925-3 limits assumed): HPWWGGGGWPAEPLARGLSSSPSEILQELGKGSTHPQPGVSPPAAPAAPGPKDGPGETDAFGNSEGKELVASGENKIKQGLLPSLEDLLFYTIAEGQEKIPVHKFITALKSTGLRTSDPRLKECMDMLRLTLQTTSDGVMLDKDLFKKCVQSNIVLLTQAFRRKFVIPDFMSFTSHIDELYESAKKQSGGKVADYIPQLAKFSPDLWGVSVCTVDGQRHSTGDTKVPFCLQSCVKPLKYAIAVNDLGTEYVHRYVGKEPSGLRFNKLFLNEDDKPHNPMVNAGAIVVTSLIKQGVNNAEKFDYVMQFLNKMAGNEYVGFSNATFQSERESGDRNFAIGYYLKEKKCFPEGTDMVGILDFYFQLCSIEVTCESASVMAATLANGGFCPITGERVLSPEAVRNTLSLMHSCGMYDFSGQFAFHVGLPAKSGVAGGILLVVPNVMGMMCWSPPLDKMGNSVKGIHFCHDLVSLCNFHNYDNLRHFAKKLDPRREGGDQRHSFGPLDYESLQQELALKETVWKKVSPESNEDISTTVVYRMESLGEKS
Procedure, shortened: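 Recombinant human GAC (2 nM) preincubated with 50 mM potassium phosphate, then inhibitor (10 min each, RT); 1 mM glutamine, pH 7.4 Hepes buffer, 1% DMSO. Glutamate coupled via glutamate oxidase/HRP to resorufin (Ex 530/Em 590), kinetic or 20-min endpoint; IC50 by four-parameter logistic fit.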

[2] = tested on: A549 cells; assay: A549 proliferation (viability) assay, Cell Titer Fluor, 72 hours; type: cell-based; details: Homo sapiens
Procedure, shortened: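 Seed A549 at 1000 cells/well and culture 24 h. Add compound (final DMSO 0.5%) and incubate 72 h at 37 °C. Add Cell Titer Fluor, mix 15 min, incubate 30 min, read fluorescence and fit EC50 by four-parameter logistic.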

Row | Structure (SMILES) | IC50 [1] [nM] | EC50 [2] [nM]
1 | CO[C@H](C(=O)Nc1ccn(CC(F)CCn2cc(C(=O)NCc3cccc(OC(F)(F)F)c3)nn2)c(=O)c1F)c1ccccc1 (stereo partly drawn) [Example 309, 1-(3-fluoro-4-{3-fluoro-4-[(2S)-2-methoxy-2-phenylacetamido]-2-oxo-1,2-dihydropyridin-1-yl}butyl)-N-{[3-(trifluoromethoxy)phenyl]methyl}-1H-1,2,3-triazole-4-carboxamide] | 500 to 5000 | 500 to 5000
2 | CO[C@@H](C(=O)Nc1ccn(CC(F)CCn2cc(C(=O)NCc3cccc(OC(F)(F)F)c3)nn2)c(=O)c1F)c1ccccc1 (stereo partly drawn) [Example 310, 1-(3-fluoro-4-{3-fluoro-4-[(2R)-2-methoxy-2-phenylacetamido]-2-oxo-1,2-dihydropyridin-1-yl}butyl)-N-{[3-(trifluoromethoxy)phenyl]methyl}-1H-1,2,3-triazole-4-carboxamide] | 500 to 5000 | 500 to 5000
3 | CCOC(=O)c1cn(CC(F)CCn2ccc(NC(=O)OC(C)(C)C)c(F)c2=O)nn1 (stereo not shown) [Example 311, ethyl 1-[4-(4-{[(tert-butoxy)carbonyl]amino}-3-fluoro-2-oxo-1,2-dihydropyridin-1-yl)-2-fluorobutyl]-1H-1,2,3-triazole-4-carboxylate] | 500 to 5000 | > 5000
4 | CC(C)(C)OC(=O)N1CCC(CC(=O)Nc2ccn(CC(F)CCn3cc(C(=O)NCc4cccc(OC(F)(F)F)c4)nn3)c(=O)c2F)CC1 (stereo not shown) [Example 314, tert-butyl 4-{[(3-fluoro-1-{2-fluoro-4-[4-({[3-(trifluoro-methoxy)phenyl]methyl}carbamoyl)-1H-1,2,3-triazol-1-yl]butyl}-2-oxo-1,2-dihydropyridin-4-yl)carbamoyl]methyl}piperidine-1-carboxylate] | 500 to 5000 | 100 to 500
5 | CC(C(=O)Nc1ccn(CCC(F)Cn2cc(C(=O)NCc3cccc(OC(F)(F)F)c3)nn2)c(=O)c1F)c1ccccc1 (stereo not shown) [Example 316, 1-{2-fluoro-4-[3-fluoro-2-oxo-4-(2-phenylpropanamido)-1,2-dihydropyridin-1-yl]butyl}-N-{[3-(trifluoromethoxy)phenyl]methyl}-1H-1,2,3-triazole-4-carboxamide] | < 100 | < 100
6 | O=C(Cc1ccccc1)Nc1ccn(CCC(F)Cn2cc(C(=O)NCc3cccc(C(F)(F)F)n3)nn2)c(=O)c1F (stereo not shown) [Example 317, 1-{2-fluoro-4-[3-fluoro-2-oxo-4-(2-phenylacetamido)-1,2-dihydropyridin-1-yl]butyl}-N-{[6-(trifluoromethyl)pyridin-2-yl]methyl}-1H-1,2,3-triazole-4-carboxamide] | < 100 | < 100
7 | O=C(CC1CCCC1)Nc1ccn(CCC(F)Cn2cc(C(=O)NCc3cccc(C(F)(F)F)n3)nn2)c(=O)c1F (stereo not shown) [Example 318, 1-{4-[4-(2-cyclopentylacetamido)-3-fluoro-2-oxo-1,2-dihydropyridin-1-yl]-2-fluorobutyl}-N-{[6-(trifluoromethyl)pyridin-2-yl]methyl}-1H-1,2,3-triazole-4-carboxamide] | < 100 | < 100
8 | CC(C)(C)OC(=O)Nc1ccn(CCC(F)Cn2cc(C(=O)NCc3cc(C(F)(F)F)ccn3)nn2)c(=O)c1F (stereo not shown) [Example 320, tert-butyl N-(3-fluoro-1-{3-fluoro-4-[4-({[4-(trifluoromethyl)pyridin-2-yl]methyl}carbamoyl)-1H-1,2,3-triazol-1-yl]butyl}-2-oxo-1,2-dihydropyridin-4-yl)carbamate] | 100 to 500 | 100 to 500
9 | O=C(Cc1ccccc1)Nc1ccn(CCC(F)Cn2cc(C(=O)NCc3cc(C(F)(F)F)ccn3)nn2)c(=O)c1F (stereo not shown) [Example 323, 1-{2-fluoro-4-[3-fluoro-2-oxo-4-(2-phenylacetamido)-1,2-dihydropyridin-1-yl]butyl}-N-{[4-(trifluoromethyl)pyridin-2-yl]methyl}-1H-1,2,3-triazole-4-carboxamide] | < 100 | < 100
10 | CCOC(=O)N1CCC(CC(=O)Nc2ccn(CCC(F)Cn3cc(C(=O)NCc4cc(C(F)(F)F)ccn4)nn3)c(=O)c2F)CC1 (stereo not shown) [Example 324, ethyl 4-{[(3-fluoro-1-{3-fluoro-4-[4-({[4-(trifluoromethyl)pyridin-2-yl]methyl}carbamoyl)-1H-1,2,3-triazol-1-yl]butyl}-2-oxo-1,2-dihydropyridin-4-yl)carbamoyl]methyl}piperidine-1-carboxylate] | < 100 | < 100
11 | CC(=O)OC(C(=O)Nc1ccn(CC[C@H](F)Cn2cc(C(=O)NCc3cc(C(F)(F)F)ccn3)nn2)c(=O)c1F)c1ccccc1 (stereo partly drawn) [Example 325, (S)-[(3-fluoro-1-{3-fluoro-4-[4-({[4-(trifluoromethyl)pyridin-2-yl]methyl}carbamoyl)-1H-1,2,3-triazol-1-yl]butyl}-2-oxo-1,2-dihydropyridin-4-yl)carbamoyl](phenyl)methyl acetate] | < 100 | < 100
12 | O=C(NCc1cc(C(F)(F)F)ccn1)c1cn(CC(F)CCn2ccc(NC(=O)[C@@H](O)c3ccccc3)c(F)c2=O)nn1 (stereo partly drawn) [Example 326, 1-(2-fluoro-4-{3-fluoro-4-[(2S)-2-hydroxy-2-phenylacetamido]-2-oxo-1,2-dihydropyridin-1-yl}butyl)-N-{[4-(trifluoromethyl)pyridin-2-yl]methyl}-1H-1,2,3-triazole-4-carboxamide] | < 100 | < 100

Continued, values first:

Row | IC50 [1] [nM] | EC50 [2] [nM] | Structure (SMILES)
13 | < 100 | < 100 | Cc1ccc(CNC(=O)c2cn(CC(F)CCn3ccc(NC(=O)CC4CCCC4)c(F)c3=O)nn2)cn1 (stereo not shown) [Example 303, 1-{4-[4-(2-cyclopentylacetamido)-3-fluoro-2-oxo-1,2-dihydropyridin-1-yl]-2-fluorobutyl}-N-[(6-methylpyridin-3-yl)methyl]-1H-1,2,3-triazole-4-carboxamide]
14 | < 100 | < 100 | Cc1ccc(CNC(=O)c2cn(CC(F)CCn3ccc(NC(=O)CC4CCC4)c(F)c3=O)nn2)cn1 (stereo not shown) [Example 304, 1-(4-(4-(2-cyclobutylacetamido)-3-fluoro-2-oxopyridin-1(2H)-yl)-2-fluorobutyl)-N-((6-methylpyridin-3-yl)methyl)-1H-1,2,3-triazole-4-carboxamide]
15 | < 100 | < 100 | CC(=O)OC(C(=O)Nc1ccn(CC[C@H](F)Cn2cc(C(=O)NCc3cccc(OC(F)(F)F)c3)nn2)c(=O)c1F)c1ccccc1 (stereo partly drawn) [Example 305, (S)-[(3-fluoro-1-{3-fluoro-4-[4-({[3-(trifluoromethoxy)phenyl]methyl}carbamoyl)-1H-1,2,3-triazol-1-yl]butyl}-2-oxo-1,2-dihydropyridin-4-yl)carbamoyl](phenyl)methyl acetate]
16 | < 100 | 100 to 500 | Cc1ccc(CNC(=O)c2cn(CC(F)CCn3ccc(NC(=O)Cc4ccccc4)c(F)c3=O)nn2)cn1 (stereo not shown) [Example 307, 1-{2-fluoro-4-[3-fluoro-2-oxo-4-(2-phenylacetamido)-1,2-dihydropyridin-1-yl]butyl}-N-[(6-methylpyridin-3-yl)methyl]-1H-1,2,3-triazole-4-carboxamide]
17 | < 100 | 100 to 500 | O=C(CN1CCN(C(=O)CC(F)(F)F)CC1)Nc1ccn(CCC(F)Cn2cc(C(=O)NCc3cccc(OC(F)(F)F)c3)nn2)c(=O)c1F (stereo not shown) [Example 308, 1-[2-fluoro-4-(3-fluoro-2-oxo-4-{2-[4-(3,3,3-trifluoropropanoyl)piperazin-1-yl]acetamido}-1,2-dihydropyridin-1-yl)butyl]-N-{[3-(trifluoromethoxy)phenyl]methyl}-1H-1,2,3-triazole-4-carboxamide]
18 | < 100 | 100 to 500 | CO[C@H](C(=O)Nc1ccn(CCC(F)Cn2cc(C(=O)NCc3ccc(C)nc3)nn2)c(=O)c1F)c1ccccc1 (stereo partly drawn) [Example 312, 1-(2-fluoro-4-{3-fluoro-4-[(2S)-2-methoxy-2-phenylacetamido]-2-oxo-1,2-dihydropyridin-1-yl}butyl)-N-[(6-methylpyridin-3-yl)methyl]-1H-1,2,3-triazole-4-carboxamide]
19 | < 100 | 100 to 500 | CO[C@@H](C(=O)Nc1ccn(CCC(F)Cn2cc(C(=O)NCc3ccc(C)nc3)nn2)c(=O)c1F)c1ccccc1 (stereo partly drawn) [Example 313, 1-(2-fluoro-4-{3-fluoro-4-[(2R)-2-methoxy-2-phenylacetamido]-2-oxo-1,2-dihydropyridin-1-yl}butyl)-N-[(6-methylpyridin-3-yl)methyl]-1H-1,2,3-triazole-4-carboxamide]
20 | < 100 | < 100 | O=C(Nc1ccn(CCC(F)Cn2cc(C(=O)NCc3cccc(OC(F)(F)F)c3)nn2)c(=O)c1F)C(=O)c1ccccc1 (stereo not shown) [Example 315, 1-{2-fluoro-4-[3-fluoro-2-oxo-4-(2-oxo-2-phenylacetamido)-1,2-dihydropyridin-1-yl]butyl}-N-{[3-(trifluoromethoxy)phenyl]methyl}-1H-1,2,3-triazole-4-carboxamide]
